Test results: ChEMBL document CHEMBL4130422, “Design, synthesis and biological evaluation of novel C-29 carbamate celastrol derivatives as potent and selective cytotoxic compounds” (Eur J Med Chem, 2017)
The source made the active and inactive calls. The rule behind the calls is not given here.

Key:
[1] = test system: A549; experiment: Antiproliferative activity against human A549 cells after 72 hrs by MTT assay; assay type: functional, cell-based; conditions: A549, 72 h
[2] = test system: MIA PaCa-2; experiment: Antiproliferative activity against human MIAPaCa2 cells after 72 hrs by MTT assay; assay type: functional, cell-based; conditions: MIA PaCa-2, 72 h
[3] = test system: HT-29; experiment: Antiproliferative activity against human HT-29 cells after 72 hrs by MTT assay; assay type: functional, cell-based; conditions: HT-29, 72 h
[4] = test system: BJ; experiment: Antiproliferative activity against human BJ cells after 72 hrs by MTT assay; assay type: cell-based
[5] = test system: SK-OV-3; experiment: Antiproliferative activity against human SKOV3 cells after 72 hrs by MTT assay; assay type: functional, cell-based; conditions: SK-OV-3, 72 h
[6] = test system: MCF7; experiment: Antiproliferative activity against human MCF7 cells after 72 hrs by MTT assay; assay type: functional, cell-based; conditions: MCF7, 72 h
[7] = test system: MDA-MB-231; experiment: Antiproliferative activity against human MDA-MB-231cells after 72 hrs by MTT assay; assay type: functional, cell-based; conditions: MDA-MB-231, 72 h
[8] = test system: SK-OV-3; experiment: Induction of apoptosis in human SKOV3 cells assessed as increase in cleaved caspase-9 expression levels at IC50 after 72 hrs by Western blot analysis; assay type: functional, cell-based
[9] = test system: SK-OV-3; experiment: Induction of apoptosis in human SKOV3 cells assessed as early apoptotic cells at IC50 after 72 by Annexin V-FITC/propidium iodide double-staining-based FACS analysis (reference value: 4.5%); assay type: functional
[10] = test system: SK-OV-3; experiment: Induction of apoptosis in human SKOV3 cells assessed as nuclear condensation at IC50 after 48 hrs by Hoechst 33342 staining-based fluorescence microscopic method; assay type: functional, cell-based
[11] = test system: SK-OV-3; experiment: Induction of apoptosis in human SKOV3 cells assessed as increase in cleaved caspase-3 expression levels at IC50 after 72 hrs by Western blot analysis; assay type: functional, cell-based
[12] = test system: SK-OV-3; experiment: Induction of apoptosis in human SKOV3 cells assessed as increase in Bid expression levels at IC50 after 72 hrs by Western blot analysis; assay type: functional, cell-based
[13] = test system: SK-OV-3; experiment: Synergistic antiproliferative activity against human SKOV3 cells assessed as combination index at 2 uM after 72 hrs in presence of 128 uM carboplatin by MTT assay; assay type: functional
[14] = test system: SK-OV-3; experiment: Induction of apoptosis in human SKOV3 cells assessed as nuclear fragmentation at IC50 after 48 hrs by Hoechst 33342 staining-based fluorescence microscopic method; assay type: functional, cell-based
[15] = test system: SK-OV-3; experiment: Induction of apoptosis in human SKOV3 cells assessed as decrease in procaspase-8 expression levels at IC50 after 72 hrs by Western blot analysis; assay type: functional, cell-based
[16] = test system: SK-OV-3; experiment: Induction of apoptosis in human SKOV3 cells assessed as decrease in procaspase-9 expression levels at IC50 after 72 hrs by Western blot analysis; assay type: functional, cell-based
[17] = test system: SK-OV-3; experiment: Anticlonogenic activity against human SKOV3 cells assessed as reduction in colony formation efficiency treated for 24 hrs followed by incubation in drug free medium for 12 days by crystal violet staining-based assay; assay type: functional, cell-based
[18] = test system: SK-OV-3; experiment: Induction of apoptosis in human SKOV3 cells assessed as increase in cleaved caspase-8 expression levels at IC50 after 72 hrs by Western blot analysis; assay type: functional, cell-based
[19] = test system: SK-OV-3; experiment: Synergistic antiproliferative activity against human SKOV3 cells assessed as combination index at 1 uM after 72 hrs in presence of 64 uM carboplatin by MTT assay; assay type: functional
[20] = test system: SK-OV-3; experiment: Induction of apoptosis in human SKOV3 cells assessed as decrease in procaspase-3 expression levels at IC50 after 72 hrs by Western blot analysis; assay type: functional, cell-based
[21] = test system: SK-OV-3; experiment: Induction of apoptosis in human SKOV3 cells at IC50 by Annexin V-FITC/propidium iodide double-staining-based FACS analysis; assay type: functional, cell-based; conditions: TDE = time-dependent effect
[22] = test system: SK-OV-3; experiment: Induction of apoptosis in human SKOV3 cells assessed as cell shrinkage at IC50 after 48 hrs by Hoechst 33342 staining-based fluorescence microscopic method; assay type: functional
[23] = test system: SK-OV-3; experiment: Synergistic antiproliferative activity against human SKOV3 cells assessed as combination index at 0.125 uM after 72 hrs in presence of 8 uM carboplatin by MTT assay; assay type: functional
[24] = test system: SK-OV-3; experiment: Cell cycle arrest in human SKOV3 cells at IC50 at 24 to 72 hrs by propidium iodide staining-based FACS analysis; assay type: functional
[25] = test system: SK-OV-3; experiment: Induction of apoptosis in human SKOV3 cells assessed as formation of apoptotic bodies at IC50 after 48 hrs by Hoechst 33342 staining-based fluorescence microscopic method; assay type: functional, cell-based
[26] = test system: SK-OV-3; experiment: Induction of apoptosis in human SKOV3 cells assessed as increase in cleaved PARP expression levels at IC50 after 72 hrs by Western blot analysis; assay type: functional, cell-based
[27] = test system: SK-OV-3; experiment: Synergistic antiproliferative activity against human SKOV3 cells assessed as combination index at 0.25 uM after 72 hrs in presence of 16 uM carboplatin by MTT assay; assay type: functional
[28] = test system: SK-OV-3; experiment: Synergistic antiproliferative activity against human SKOV3 cells assessed as combination index at 0.5 uM after 72 hrs in presence of 32 uM carboplatin by MTT assay; assay type: functional
[29] = test system: SK-OV-3; experiment: Induction of apoptosis in human SKOV3 cells assessed as increase in Bax expression levels at IC50 after 72 hrs by Western blot analysis; assay type: functional, cell-based
[30] = test system: SK-OV-3; experiment: Induction of apoptosis in human SKOV3 cells assessed as decrease in Bcl-2 expression levels at IC50 after 72 hrs by Western blot analysis; assay type: functional, cell-based
[31] = test system: SK-OV-3; experiment: Induction of apoptosis in human SKOV3 cells assessed as decrease in full-length PARP expression levels at IC50 after 72 hrs by Western blot analysis; assay type: functional, cell-based

`CCCOC(=O)N[C@]1(C)CC[C@]2(C)CC[C@]3(C)C4=CC=C5C(=CC(=O)C(O)=C5C)[C@]4(C)CC[C@@]3(C)[C@@H]2C1` showed an IC50 [1] of 1000 nM and an IC50 [2] of 400 nM.

With `CC1=C(O)C(=O)C=C2C1=CC=C1[C@@]2(C)CC[C@@]2(C)[C@@H]3C[C@](C)(C(=O)O)CC[C@]3(C)CC[C@]12C` [CELASTROL] the IC50 [3] was 1280 nM, the IC50 [1] was 1560 nM and the IC50 [2] was 460 nM. It also gave an IC50 [4] of 2740 nM, an IC50 [5] of 1160 nM and an IC50 [6] of 1350 nM. It also gave an IC50 [7] of 1320 nM.

Molecule `CC1=C(O)C(=O)C=C2C1=CC=C1[C@@]2(C)CC[C@@]2(C)[C@@H]3C[C@](C)(N=C=O)CC[C@]3(C)CC[C@]12C` has an IC50 [1] of 2470 nM and an IC50 [2] of 530 nM.

`CCCCCOC(=O)N[C@]1(C)CC[C@]2(C)CC[C@]3(C)C4=CC=C5C(=CC(=O)C(O)=C5C)[C@]4(C)CC[C@@]3(C)[C@@H]2C1` showed an IC50 [3] of 1020 nM, an IC50 [1] of 1050 nM and an IC50 [2] of 320 nM. For the same molecule, the IC50 [4] was 880 nM, the IC50 [5] was 450 nM and the IC50 [6] was 590 nM. The IC50 [7] was 520 nM.

`CC(=O)Oc1cc2c(c(C)c1OC(C)=O)C(=O)C=C1[C@@]2(C)CC[C@@]2(C)[C@@H]3C[C@](C)(C=O)CC[C@]3(C)CC[C@]12C` gave an IC50 [1] of 2770 nM and an IC50 [2] of 380 nM.

`COC(=O)N[C@]1(C)CC[C@]2(C)CC[C@]3(C)C4=CC(=O)c5c(cc(OC(C)=O)c(OC(C)=O)c5C)[C@]4(C)CC[C@@]3(C)[C@@H]2C1` was tested, and the Activity [8] was “inactive”, the Activity [9] was 29.9% and the Activity [10] was “Active”. For the same molecule, the Activity [11] was “Active”, the Activity [12] was “inactive” and the IC50 [3] was 1540 nM. For the same molecule, the CI [13] was 1.076, the IC50 [1] was 880 nM and the Activity [14] was “Active”. The Activity [15] was “Active”, the Activity [16] was “inactive” and the Activity [17] was “Dose-dependent effect”. The Activity [18] was “Active”, the CI [19] was 0.7863 and the Activity [20] was “Active”. The IC50 [2] was 330 nM, the Activity [21] was “Tde” and the Activity [22] was “Active”. For the same molecule, the IC50 [4] was 3680 nM, the IC50 [5] was 540 nM and the CI [23] was 1.112. The IC50 [6] was 1680 nM, the Activity [24] was “inactive” and the Activity [25] was “Active”. The Activity [26] was “Active”, the CI [27] was 0.9285 and the IC50 [7] was 1350 nM. For the same molecule, the CI [28] was 0.6273, the Activity [29] was “inactive” and the Activity [30] was “inactive”. For the same molecule, the Activity [31] was “Active”.

Work on `CC(=O)Oc1cc2c(c(C)c1OC(C)=O)CC=C1[C@@]2(C)CC[C@@]2(C)[C@@H]3C[C@](C)(N=C=O)CC[C@]3(C)CC[C@]12C` yielded an IC50 [1] of 2890 nM and an IC50 [2] of 1410 nM.

Molecule `CC(=O)Oc1cc2c(c(C)c1OC(C)=O)C(=O)C=C1C2(C)CC[C@@]2(C)[C@@H]3C[C@](C)(C(=O)O)CC[C@]3(C)CC[C@]12C` (single isomer, unassigned) has an IC50 [1] of over 10000 nM and an IC50 [2] of over 10000 nM.

For `CCOC(=O)N[C@]1(C)CC[C@]2(C)CC[C@]3(C)C4=CC(=O)c5c(cc(O)c(O)c5C)[C@]4(C)CC[C@@]3(C)[C@@H]2C1`, the IC50 [1] was over 10000 nM and the IC50 [2] was over 10000 nM.

Work on `CC(=O)Oc1cc2c(c(C)c1OC(C)=O)C(=O)C=C1[C@@]2(C)CC[C@@]2(C)[C@@H]3C[C@](C)(C(N)=O)CC[C@]3(C)CC[C@]12C` yielded an IC50 [1] of 1270 nM and an IC50 [2] of 360 nM.

With `CC(=O)Oc1cc2c(c(C)c1OC(C)=O)CC=C1[C@@]2(C)CC[C@@]2(C)[C@@H]3C[C@](C)(C(=O)O)CC[C@]3(C)CC[C@]12C` the IC50 [1] was 2210 nM and the IC50 [2] was 560 nM.
